For data set [1], the system named is Patched pathway / ultraviolet radiation-induced BCC tumors. The experiment in a line: Adult BCC mouse skin punch assay (UV-irradiated Ptc heterozygous transgenic mice). Format: cell-based. Here is the method: Ptc heterozygous transgenic mice were irradiated 3 times weekly for 6 months, during which time many small, and often microscopic, BCC tumors developed. Four-mm diameter skin punch explants, presumably containing BCC structures, were cultured for 6 days in the presence of vehicle, the positive control […]), or 5 μM D. At the end of the experiment, the explants were analyzed by X-gal staining to detect the level of Patched pathway activity, by histology to determine the effect of treatment on the morphology of ultraviolet radiation-induced BCCs, and by quantifying the level of gli-1 mRNA expression to characterize the extent of pathway inhibition.

Data set [2] deals with Ptc-null cells (gli-1 mRNA, Patched pathway). The data set can be described thus: Ptc-null assay: gli-1 mRNA by RT-PCR and quantitative real-time PCR. Format: cell-based, mouse. The following applies: 3 days; for expression of gli-1 mRNA (RT-PCR, agarose gel): vs vehicle. The protocol: Ptc-null cells were cultured for 3 days in the presence of vehicle; jervine, a known Patched pathway antagonist (i) used here as a positive control; or 1 μM of compound D. Total ribonucleic acid (RNA) was isolated from the cells and used for reverse transcriptase-polymerase chain reaction (RT-PCR). […] The gli-1 and actin mRNA samples were then loaded on 1.5% agarose gel and were detected by staining with ethidium bromide. The same samples were analyzed by the quantitative real-time polymerase chain reaction method to quantify the levels of gli-1 MRNA.

Data set [3] has as its system Patched pathway (ptc-lacZ reporter). The experiment in a line: Embryonic mouse skin punch assay: short-term pretreatment with D. Format: cell-based. The following applies: pretreated with D at 10, 20 and 50 μM for 5 hours, then Shh 6 days. The protocol: Transgenic mouse-derived skin punches were treated with vehicle or D for 5 hours in the absence of Shh. After the pretreatment, the vehicle or D was removed. The skin punches were washed twice and then cultured in the presence of Shh for 6 days. At the end of the experiment, the skin punches were fixed and stained with X-gal to determine Patched pathway activity.

The subject of data set [4] is Patched pathway (ptc-lacZ reporter, Shh-induced BCC-like structures). The experiment in a line: Embryonic mouse skin punch assay: prolonged exposure to D. Type of data set: cell-based. The following applies: Shh-treated skin punches, 6 days. The source says:
A novel cell culture assay was established to determine the effects of D on activation of the Patched pathway in skin. In this system, activation of the Patched pathway results in increased expression of the ptc gene.
To monitor the activity of the Patched pathway in embryonic skin, we cultured pieces of skin from transgenic Patched pathway reporter mice. These mice were genetically engineered to harbor a foreign gene (lacZ). The lacZ gene encodes a bacterial beta-galactosidase. The gene was inserted in the ptc locus but allowed for normal ptc function. Ptc activation in response to Shh-induced Patched pathway activation can then be monitored by the production of the lacZ gene product, beta-galactosidase, which is detectable by the enzymatic conversion of the substrate X-gal into a blue-colored reaction product.
Day 17.5 embryonic skin was explanted as 2 mm circular punches from these transgenic reporter mice and cultured for 5 to 7 days in the presence of Shh protein (FIG. 34). […] To test the effect of D, skin punches were cultured for 6 days in the presence of both Shh protein and D (FIG. 35).

The subject of data set [5] is Hedgehog pathway. The data set can be described thus: Gli-Luc assay (Hedgehog-responsive Luciferase reporter), 10T1/2(s12) cells with OCT-SHH. Format: cell-based. The conditions noted are these: OCT-SHH 0.3 μg/ml. Here is the method: Compounds to be tested are dissolved in DMSO to a concentration of 10 MM, and stored at −20° C. To activate the Hedgehog pathway in the assay cells, an octylated (lipid-modified) form of the N-terminal fragment of the Sonic Hedgehog protein (OCT-SHH) is used. This N-terminal SHH fragment is produced bacterially.
Compounds may be tested in the “Gli-Luc” assay below, using the cell line 10T(s12), wherein the cells contain a Hedgehog-responsive reporter construct utilizing Luciferase as the reporter gene. In this way, Hedgehog pathway signaling activity can be measured via the Gli-Luc response.
10t1/2(s12) cells are plated in a 96-well micro-titer plate (MTP) at 20,000 cells/well in full medium [DMEM with 10% FBS]. Then plates are placed in the incubator for incubation overnight (O/N), at 37° C. and 5% CO2. After 24 h, the medium is replaced with Luciferase-assay medium (DMEM with 0.5% FBS). Compounds are thawed and diluted in assay medium at 3:1000 (about 300-fold) resulting in a starting concentration of about 30 μM.
Subsequently, 150 μl of each 30 μM sample is added to the first wells (in triplicate). The MTP samples are then diluted at 3-fold dilutions to a total of seven wells, ultimately resulting in a regiment of seven dilutions in triplicate, for each compound. Next, the protein ligand OCT-SHH is diluted in Luciferase-assay medium and added to each well at a final concentration of 0.3 μg/ml. Plates are then returned to the incubator for further incubation O/N, at 37° C. and 5% CO2. After about 24 h, plates are removed from the incubator and the medium is aspirated/discarded. Wells are washed once with assay buffer [PBS +1 mM Mg^2+and 1 mM Ca^2+]. Then 50 μl of assay buffer is added to each well. The Luciferase assay reagent is prepared as described by the vendor (LucLite kit from Packard), and 50 μl is added to each well. Plates are incubated at room temperature (RT) for about 30 minutes after which the signals are read, again at RT, on a Topcount (Packard).

Data set [6] deals with Patched pathway (X-gal, gli-1 mRNA, BCC-like structures). The data set can be described thus: Embryonic mouse skin punch assay: short-term treatment of pre-existing BCC-like structures. Format: cell-based. Here is the method: Day 17.5 embryonic skin punches from transgenic Patched pathway reporter mice were cultured in the presence of Shh protein for 7 days. The Shh protein was removed at the end of the 7 days. The skin punches were then exposed to vehicle or 1 or 5 μM D for 5 hours on days 7 and 9. After each exposure to vehicle or D, the vehicle or D was washed off and the skin punches were cultured again in the presence of Shh protein. Cultures were analyzed by X-gal staining after 10 days in vitro to assess the activity of the Patched pathway.

Data set [7] relates to Shh-induced BCC-like structures. The experiment in a line: Embryonic mouse skin punch assay: long-term treatment of pre-existing BCC-like structures. Type of data set: cell-based. The protocol:
Day 17.5 embryonic skin punches from transgenic Patched pathway reporter mice were cultured in the presence of Shh protein for 7 days to allow for the development of BCC-like structures. The Shh protein was removed at the end of the 7 days. The cultures were then exposed to Shh protein plus either vehicle or D for 3 days. The cultures were analyzed histologically after 10 days to assess the formation of BCC-like structures that are indicative of activation of the Patched pathway.
One possible mechanism for D-induced regression of BCC-like structures may be apoptosis of the activated cells. To investigate this possibility, parallel explants were exposed to 5 μM D for 2 days and were then stained by the terminal deoxynucleotidyltransferase mediated d-UTP nick end-labeling (TUNEL) method, which is used to detect apoptotic nuclei.

In data set [8] the test system is GLI-1 expression in human BCC. The experiment in a line: Human BCC explant culture, quantitative in situ hybridization. Format: cell-based. The following applies: 10 μM D, 3 days, vs vehicle. The protocol:
Specimens obtained from surgical procedures (such as Mohs surgery or curettage) were cultured on fresh, living, day 17 embryonic mouse dermis from which all epidermal cells have been removed by digestion using dispase. Since dispase treatment digests basement membrane components, Matrigel, a commercially available basement membrane preparation, was applied between the dermis and BCC. Cultures were assembled on top of a plastic grid and incubated for 3 days (with or without D at a concentration of 10 μM) in a medium suitable for the long-term culture of human skin. After culture, the samples were processed for routine histology and subjected to quantitative in situ hybridization. Briefly, 7μm sections of paraformaldehyde-fixed, paraffin-embedded tissue containing large basal cell islands were cleared, re-hydrated, digested with proteinase K, acetylated and hybridized with [^33P]- labeled RNA probes overnight. After high stringency post-hybridization washes, slides were exposed to a PhosphorImager screen in the dark at room temperature for 4-7 days. After developing, the [^33P]-signal was scanned using a Storm Scanner (Molecular Dynamics). Individual basal cell islands were selected and the signal quantified and expressed in average counts/pixel using ImageQuant 1.0 software.

The mark [9] stands for this setting: short-term treatment, 5 hours on days 7 and 9.

Consider `CC1=C2C(=O)[C@H]3[C@@H](CC=C4C[C@@H](O)CC[C@@]43C)[C@@H]2CC[C@]12O[C@@H]1C[C@H](C)CN[C@H]1[C@H]2C` [jervine, reference compound], for which, in data set [1] (jervine positive control, 6 days, vs vehicle), the “number and size of BCC structures (X-gal staining)” value was “greatly decreased”. In data set [2] (5 μM jervine), the “gli-1 mRNA levels (quantitative real-time PCR)” value is given as “downregulated” and the “expression of gli-1 mRNA (RT-PCR, agarose gel)” value was “significantly decreased”.
As for `COc1cccc(CN(C(=O)CC(C)(C)C)C2CC(C(=O)N3CCNCC3)N(Cc3ccc4c(c3)OCO4)C2)c1` (stereo not drawn) [Compound D], the “number and size of established BCC structures (X-gal staining)” value in data set [1] (5 μM D, 6 days, vs vehicle) was “decreased”. In data set [1] (D 1 and 5 μM, vs vehicle), the “level of gli-1 mRNA” value is “significantly inhibited”. For the same molecule, in data set [1] (D, 6 days, vs vehicle), the “regression of ultraviolet radiation-induced BCC tumors (histology)” value is given as “induced the regression”. The “levels of housekeeping GAPDH (non-specific cytotoxicity)” value in data set [1] (treated vs vehicle) is given as “no significant difference”. In data set [3], the “inhibition of Shh protein-induced upregulation of the Patched pathway (X-gal staining)” value is recorded as “complete inhibition”. Besides, in data set [2] (1 μM D), the “gli-1 mRNA levels (quantitative real-time PCR)” value is listed as “downregulated” and the “expression of gli-1 mRNA (RT-PCR, agarose gel)” value was “significantly decreased”. In addition, the X-gal staining entry in data set [4] (0.2 μM D, vs Shh alone) is recorded as “decreased”. In addition, the “Patched pathway activity (lacZ reporter enzyme activity)” value in data set [4] (0.01 to 1 μM D) is “dose-dependent decrease”. In data set [4] (histology), the “formation of BCC-like structures” value is on record as “completely blocked” and the “integrity of normal skin cells” value was “without affecting the integrity of normal skin cells”. Moreover, the IC50 in data set [5] is under 1000 nM. Besides, in data set [6] (1 and 5 μM D for 5 hours on days 7 and 9), the “regression of existing Shh-induced BCC-like structures” value was “caused the regression”. Also, the “amount of X-gal staining” value in data set [6] (1 or 5 μM D for 5 hours on days 7 and 9) is listed as “reduced”. In addition, in data set [6] (setting [9]), the “GAPDH mRNA levels (general cytotoxicity)” value was “relatively constant” and the “gli-1 transcription (gli-1 mRNA levels)” value was “completely downregulated”. Also, in data set [7] (5 μM D, 2 days, vs vehicle), the “number of apoptotic nuclei within BCC-like structures (TUNEL)” value was “significantly higher”. Further, the “general cytotoxic effects on skin cells (histology)” value in data set [7] (D 1 or 5 μM, 3 days) was “did not appear to have general cytotoxic effects”. In addition, the “size and number of Shh-induced BCC-like structures” value in data set [7] (pre-existing structures, D 1 or 5 μM, 3 days, vs vehicle) is “significantly reduced”. Besides, the “level of GLI-1 expression (quantitative in situ hybridization)” value in data set [8] is “greatly reduced”.
In data set [5], `COc1cccc(CN(C(=O)CC(C)(C)C)C2CC(C(=O)N3CCNCC3)N(Cc3ccc(F)cc3)C2)c1` (stereo not drawn) [X] returned an IC50 of under 10000 nM.
As for `COc1cccc(CN(C(=O)CC(C)(C)C)C2CC(C(=O)N3CCNCC3)N(Cc3ccccc3)C2)c1` (stereo not drawn) [R], the IC50 in data set [5] is under 1000 nM.
In data set [5], `Cc1ccc(CN2CC(N(CCc3ccccc3)Cc3ccc(F)cc3)CC2C(=O)NCCN)s1` (stereo not drawn) [H′] showed an IC50 of under 10000 nM.
The same measure, in the same setting: the figure for `CC(C)CC(=O)N(Cc1cccc(O)c1)C1CC(C(=O)N2CCNCC2)N(Cc2ccc3c(c2)OCO3)C1` (stereo not drawn) [T″] is under 1000 nM; for `COc1cccc(CN2CC(N(CCc3ccccc3)Cc3ccccc3C)CC2C(=O)NCCN)c1` (stereo not drawn) [G′] it is under 10000 nM; for `COc1cccc(CN(C(=O)C2CCC2)C2CC(C(=O)N3CCNCC3)N(Cc3ccc4c(c3)OCCO4)C2)c1` (stereo not drawn) [U′] it is under 1000 nM.
Still for that read-out and setting: the figure for `COc1cccc(CN(C(=O)CC(C)C)C2CC(C(=O)N3CCNCC3)N(Cc3ccc(OC)c(OC)c3OC)C2)c1` (stereo not drawn) [Compound I] is under 10000 nM; for `C=CCOC(=O)N(Cc1cccc(OC)c1)[C@H]1C[C@@H](C(=O)N2CCNCC2)N(Cc2ccc3c(c2)OCO3)C1` [M″] it is under 1000 nM.
In data set [5], `COc1cccc(CN(C(=O)C2CC2)C2CC(C(=O)N3CCNCC3)N(Cc3ccc4c(c3)OCO4)C2)c1` (stereo not drawn) [E] registered an IC50 of under 100 nM.
Still for that read-out and setting: the figure for `COc1cccc(CN(C(=O)CC(C)(C)C)[C@H]2C[C@@H](C(=O)NC3CCNCC3)N(Cc3ccc4c(c3)OCO4)C2)c1` [B′″] is under 1000 nM; for `NCCNC(=O)C1CC(N(CCc2ccccc2)Cc2ccc([N+](=O)[O-])cc2)CN1CC1CCCCC1` (stereo not drawn) [F′] it is under 10000 nM.
On the same count and under the same terms, the result for `COCC(=O)N(Cc1cccc(OC)c1)[C@H]1C[C@@H](C(=O)N2CCNCC2)N(Cc2ccc3c(c2)OCO3)C1` [P″] reads under 10000 nM; that for `COc1cccc(CN(C(=O)CC2CCCC2)C2CC(C(=O)N3CCNCC3)N(Cc3ccc4c(c3)OCO4)C2)c1` (stereo not drawn) [K″], under 1000 nM.
On the same count and under the same terms, the result for `COc1cccc(CN(C(=O)CC(C)(C)C)C2CC(C(=O)N3CCNCC3)N(Cc3ccc4c(c3)OCCO4)C2)c1` (stereo not drawn) [J] reads under 100 nM.
Regarding `COc1cccc(CN(C(=O)C2CC2)C2CC(C(=O)N3CCNCC3)N(CC(C)C)C2)c1` (stereo not drawn) [A′], in data set [5], the IC50 was under 10000 nM.
The same measure, in the same setting: the figure for `COc1cccc(CN(C(=O)CC(C)(C)C)C2CC(C(=O)N3CCNCC3)N(Cc3ccc4c(c3)OCO4)C2)c1` (stereo not drawn) [N] is under 1000 nM; for `CC(C)CN(C(=O)c1cccs1)C1CC(C(=O)NC2CCC(N)CC2)N(CC2CCCCC2)C1` (stereo not drawn) [J′] it is under 10000 nM; for `CCc1ccc(CN2CC(N(Cc3cccc(OC)c3)C(=O)CC(C)(C)C)CC2C(=O)N2CCNCC2)s1` (stereo not drawn) [A″] it is under 1000 nM.
Same read-out and setting: the figure for `Cc1ccc(CN2CC(N(Cc3cccs3)C(=O)C3CC3)CC2C(=O)N2CCNCC2)s1` (stereo not drawn) [U] is under 1000 nM.
